{"source": "patent US7807411B2", "about": "“Genetically encoded fluorescent coumarin amino acids” (The Scripps Research Institute, priority 2006, dated 2010)", "molecules": {"B1": {"name": "CouRS-D8 (protein)", "chain": "MDEFEMIKRNTSEIISEEELREVLKKDEKSAEIGFEPSGKIHLGHYLQIKKMIDLQNAGFDIIIHLGDLGAYLNQKGELDEIRKIGDYNKKVFEAMGLKAKYVYGSEYHLDKDYTLNVYRLALKTTLKRARRSMELIAREDENPKVAEVIYPIMQVNGIHYGGVDVAVGGMEQRKIHMLARELLPKKVVCIHNPVLTGLDGEGKMSSSKGNFIAVDDSPEEIRAKIKKAYCPAGVVEGNPIMEIAKYFLEYPLTIKRPEKFGGDLTVNSYEELESLFKNKELHPMDLKNAVAEELIKILEPIRKRL", "modifications": "L-(7-hydroxycoumarin-4-yl) ethylglycine aminoacyl-tRNA synthetase"}}, "key": {"[1]": {"experiment": "Absorption and emission spectra of the coumarin amino acid", "format": "physicochemical", "details": "phenolate form, pH 7.4, 100 mM sodium phosphate buffer", "protocol": "FIG. 2 provides absorption and emission spectra of L-(7-hydroxycoumarin-4-yl)ethylglycine. Both spectra were recorded at pH 7.4, 100 mM sodium phosphate buffer. At this pH, L-(7-hydroxycoumarin-4-yl)ethylglycine is present in both phenol and phenolate forms (in approximately a 2:1 ratio). The phenolate form has an extinction coefficient of 17000 at […] and a quantum yield of 0.63."}, "[2]": {"experiment": "pH sensitivity of the absorption spectrum (pKa determination)", "format": "physicochemical", "details": "60 μM in 100 mM sodium phosphate buffer, calculated from absorbance at 360 nm versus pH", "protocol": "FIG. 7 provides an absorption spectrum of 60 μM coumarinyl amino acid L-(7-hydroxycoumarin-4-yl)ethylglycine in 100 mM sodium phosphate buffer.\nThe absorption spectrum of 60 μM coumarinyl amino acid 7-hydroxycoumarin-ethylglycine was measured in 100 mM sodium phosphate buffer. The absorbance of 360 nm increased while pH increased."}, "[3]": {"tested_on": "amber codon in the chloramphenicol acetyl transferase (CAT) gene", "experiment": "Chloramphenicol survival of synthetase clones (amber suppression in CAT gene)", "format": "cell-based, E. coli", "details": "60 hours at 37° C., GMML-agar", "protocol": "Subsequently, this library was subjected to rounds of both positive and negative selections. In the positive selection, cell survival is dependent on the suppression of an amber codon introduced at a permissive site in the chloramphenicol acetyl transferase (CAT) gene when cells co-transformed with pBK-lib and MjtRNA^TyrCUA are grown in the presence of 1 mM unnatural amino acid (UAA) and chloramphenicol (Xie and Schultz, Methods (2005) 36:227-238). Positively selected clones are then transformed into cells containing MjtRNA^TyrCUA and a gene encoding the toxic barnase protein with three amber mutations introduced at permissive sites. These cells are grown in the absence of UAA to remove any clones that utilize endogenous amino acids (negative selection). These positive and negative selection are described in detail below.\nPositive Selection—E. coli DH10B harboring the pREP(2)/YC plasmid was used as the host strain for the positive selection. Cells were transformed with the pBK-lib5 library, recovered in SOC for 1 hour, washed twice with glycerol minimal media with leucine (GMML) before plating on GMML-agar plates supplemented with kanamycin, chloramphenicol, tetracycline and 7-hydroxycoumarin-ethylglycine at 50 μg/mL, 60 μg/mL, 15 μg/mL and 1 mM respectively. […]"}}}
{"molecule": "N[C@@H](CCc1cc(=O)oc2cc(O)ccc12)C(=O)O", "note": "[L-(7-hydroxycoumarin-4-yl)ethylglycine]", "values": [{"measurement": "extinction coefficient", "setting": "[1]; at 360 nm", "result": 17000, "unit": "M⁻¹ cm⁻¹"}, {"measurement": "quantum yield", "setting": "[1]", "result": 0.63}, {"measurement": "pKa", "setting": "[2]", "result": 7.8}]}
{"molecule": "B1", "values": [{"measurement": "chloramphenicol concentration at which the clone survives", "setting": "[3]; in the absence of 7-hydroxycoumarin-ethylglycine", "result": 20, "unit": "µg/mL"}, {"measurement": "chloramphenicol concentration at which the clone survives", "setting": "[3]; in the presence of 1 mM 7-hydroxycoumarin-ethylglycine", "result": 100, "unit": "µg/mL"}]}
